The assay concerns 922993-354-T-J3-PDC complex spheroid viability. Kind of assay: Anticancer human tumor 922993-354-T-J3-PDC patient-derived endometrial carcinoma cell line growth inhibition [POLQ]. The following applies: for viability, T/C: stronger effect = lower value. How it is done: Multicellular complex tumor spheroid response to Polymerase (POL) inhibitors (novobiocin, ART-558, RP6685) in combination with a variety of drugs and investigational agents in selected tumor cell lines
The POL inhibitors (novobiocin, ART-558, and RP6685) were evaluated both individually and in combination with standard of care and investigational anticancer small molecules within a complex spheroid model of solid tumors. . Complex spheroids include a stromal component modeled by human endothelial cells (HUVEC) and fibroblasts modeled by human mesenchymal stem cells (MSCs). The concentration ranges selected for each drug and investigational agent were based upon clinically achievable concentrations if the clinical Cmax of the agent was known.
Compounds. The drugs and investigational agents: novobiocin (NSC847541), ART-558 (NSC835418), RP-6685 (NSC848927), peposertib (NSC802822), ceralasertib (NSC780249), elimusertib (NSC800525), camonsertib (NSC841442), AZD-1390 (NSC803789), olaparib (NSC753686), talazoparib (NSC767125), rucaparib (NSC756644), sotorasib (NSC818433), MRTX-1133 (NSC836407), SN-38 (NSC673596), topotecan (NSC609699), epotoside (NSC141540), doxorubicin (NSC123127), gemcitabine (NSC613327), 5-fluorouracil (NSC19893), paclitaxel (NSC125973), vemurafenib (NSC761431), MSA-2 (NSC828583), SN-011 (NSC837082), adavosertib (NSC754352), prexasertib (NSC758257), carboplatin (NSC241240) and oxaliplatin (NSC266046), were obtained from the National Cancer Institute (NCI) Developmental Therapeutics Program Chemical Repository (21). The FDA-approved anticancer drug set is available from the Developmental Therapeutics Program at https://dtp.cancer.gov/organization/dscb/obtaining/. […] The stock solutions were prepared in dimethyl sulfoxide (DMSO, Sigma-Aldrich, St. Louis, MO, cat. D2650), except for the platinum compounds which were prepared in saline (Quality Biological, Gaithersburg, MD, cat. 114-055-101), at 800-fold the tested concentration and stored at -70 degrees C prior to their use. All drugs and investigational agents were tested over a range starting from a high concentration at or near the clinical Cmax and decreasing in half-log increments. If the clinical Cmax for an agent had not been determined, the highest concentration tested was 10 microM, except for SN-38, which was tested at a high concentration of 1 microM.
Cell Culture. All cells were maintained in an incubator at 37 degrees C and 5% CO2 with 95% humidity. The PDC lines were cultured according to standard operating procedures established by the NCI PDMR (https://pdmr.cancer.gov). Table 3 of the manuscript, lists the cell lines along with the number of the three cell types plated to form the mct-spheroids and media for tumor cell growth. After thawing, all PDC lines, except 997537-175-T-J1-PDC and 415267-285-R-J2-PDC, were cultured in Matrigel-coated flasks prepared with a working solution of 1X Ham's F-12 nutrient mix, without supplementation (Thermo Fisher Scientific, cat. 11765054), 100 U/mL penicillin-streptomycin (Thermo Fisher Scientific, cat. 15140122), and 2.5% Matrigel (Corning Inc., Corning, NY, cat. 354248) for the first three passages. The two PDC lines 997537-175-T-J1-PDC and 415267-285-R-J2-PDC were cultured on uncoated flasks. The 857933-349-R-J2-PDC line was cultured in 6C/Colon 1B media containing advanced DMEM/F-12 (Thermo Fisher Scientific, cat. 12634028), 10 mM HEPES (Thermo Fisher Scientific, cat. 15630080), 1X GlutaMAX supplement (Thermo Fisher Scientific, cat. 35050061), 0.1 mg/mL primocin (InvivoGen, San Diego, CA, cat. ant-pm-2), 10% defined fetal bovine serum, heat inactivated (HyClone Laboratories Inc., Logan, UT, cat. SH30070.03HI), 50% L-WRN conditioned media (ATCC, cat. CRL-3276), 1.25 mM N-Acetyl-L-cysteine (Sigma-Aldrich, cat. A9165), 10 mM nicotinamide (Sigma-Aldrich, cat. N0636), 1X B-27 supplement (Thermo Fisher Scientific, cat. 17504044), 1X N-2 supplement (Thermo Fisher Scientific, cat. […]

Values joined by “and” are separate entries in the source; they are usually repeats but may differ in a detail not shown here. Equal values may be shown once.
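Further: spheroids exposed to the agents for one week.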
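Wherever viability, T/C is given: 100% = DMSO vehicle control wells.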

Usually viability, T/C stands for the ratio of treated to control. As usually defined, the IC50 is the midpoint of a concentration-inhibition curve. On to `C=CCn1c(=O)c2cnc(Nc3ccc(N4CCN(C)CC4)cc3)nc2n1-c1cccc(C(C)(C)O)n1`, for which the viability, T/C (compound 0.00316 µM) was 99% and 101% and 104%; the viability, T/C (compound 0.01 µM) is 102% and 97.2% and 98.6%; the viability, T/C (compound 0.0316 µM) was 88.2% and 102% and 105%; the viability, T/C (compound 0.1 µM) was 98.6% and 105% and 101%; the viability, T/C (compound 0.316 µM) was 106% and 104% and 103%; the viability, T/C (compound 1 µM) is 86.5% and 104% and 96%. Besides, the IC50 (curve of compound) is above 1000 nM.
As to `CC(=O)O[C@H]1C(=O)[C@@]2(C)[C@H]([C@H](OC(=O)c3ccccc3)[C@]3(O)C[C@H](OC(=O)[C@H](O)[C@@H](NC(=O)c4ccccc4)c4ccccc4)C(C)=C1C3(C)C)[C@]1(OC(C)=O)CO[C@@H]1C[C@@H]2O`, the viability, T/C (compound 0.00949 µM) is 105% and 103% and 101%; the viability, T/C (compound 0.03 µM) is 99% and 101% and 96.3%; the viability, T/C (compound 0.0949 µM) was 99.6% and 106% and 95.9%; the viability, T/C (compound 0.3 µM) is 105% (2×) and 108%; the viability, T/C (compound 0.949 µM) was 101% and 95.8% and 89.9%; the viability, T/C (compound 3 µM) was 74.1% and 74.5% and 52%. The IC50 (curve of compound) was above 3000 nM.
Regarding `CC1COCCN1c1cc(-c2ccnn2C)c2ccnc(-c3ccn[nH]3)c2n1` (stereo not given), the viability, T/C was 102% and 89.6% and 107% (compound 0.0316 µM); 66.9% and 60.1% and 93.3% (compound 0.1 µM); 23.1% and 29.1% and 69.8% (compound 0.316 µM); 11.8% and 12.8% and 36.8% (compound 1 µM); 9.13% and 7.87% and 19.7% (compound 3.16 µM); 10.8% and 9.87% and 13.7% (compound 10 µM). In addition, under “curve of compound”, the IC50 is 156 nM and 146 nM and 630 nM.
Regarding `CC1COCCN1c1cc(C2(S(C)(=N)=O)CC2)nc(-c2ccnc3[nH]ccc23)n1` (stereo not given), the viability, T/C reads like this: (compound 0.0316 µM) 98.8% and 101% and 94%; (compound 0.1 µM) 94.9% and 100% and 90.1%; (compound 0.316 µM) 91.1% and 101% (2×); (compound 1 µM) 97% and 102% and 99.8%; (compound 3.16 µM) 93.2% and 104% and 78.1%; (compound 10 µM) 46.8% and 92.4% and 45%. Further, the IC50 (curve of compound) is 9230 nM and > 10000 nM and 8400 nM.
As to `CCCS(=O)(=O)Nc1ccc(F)c(C(=O)c2c[nH]c3ncc(-c4ccc(Cl)cc4)cc23)c1F`, the viability, T/C (compound 0.0316 µM) is 101% and 107% and 102%; the viability, T/C (compound 0.1 µM) was 102% and 103% and 98.4%; the viability, T/C (compound 0.316 µM) was 105% and 106% and 94.1%; the viability, T/C (compound 1 µM) is 104% and 107% and 109%; the viability, T/C (compound 3.16 µM) was 97.1% and 103% and 105%; the viability, T/C (compound 10 µM) was 98.9% and 92.4% and 69.4%. Moreover, under “curve of compound”, the IC50 was above 10000 nM.
For the compound `CC[C@@]1(O)C(=O)OCc2c1cc1n(c2=O)Cc2cc3c(CN(C)C)c(O)ccc3nc2-1`, the viability, T/C is 92.2% and 105% and 98.3% (compound 0.000316 µM); 103% and 105% and 84% (compound 0.001 µM); 101% and 97.8% and 99.3% (compound 0.00316 µM); 98.3% and 98.7% and 106% (compound 0.01 µM); 86.9% and 98% and 91.8% (compound 0.0316 µM); 54.7% and 87.9% and 41.4% (compound 0.1 µM). The IC50 (curve of compound) is > 100 nM and 82.7 nM.
As to `CCc1c2c(nc3ccc(O)cc13)-c1cc3c(c(=O)n1C2)COC(=O)[C@]3(O)CC`, the viability, T/C (compound 0.00316 µM) is 78.9% and 100% and 95.3%; the viability, T/C (compound 0.01 µM) is 51.6% and 79.5% and 29.8%; the viability, T/C (compound 0.0316 µM) is 13% and 39.8% and 14.1%; the viability, T/C (compound 0.1 µM) was 12.4% and 20.3% and 11.5%; the viability, T/C (compound 0.316 µM) is 15.2% and 19.6% and 12.8%; the viability, T/C (compound 1 µM) was 16.6% and 28.6% and 14.5%. Also, the IC50 (curve of compound) was 10.5 nM and 23 nM and 7.03 nM.
As for `CNCc1ccc(-c2[nH]c3cc(F)cc4c3c2CCNC4=O)cc1`, the viability, T/C runs as follows: (compound 0.0316 µM) 94.6% and 105% and 109%; (compound 0.1 µM) 96.8% and 100% and 90.3%; (compound 0.316 µM) 93.7% and 96% and 96.1%; (compound 1 µM) 105% and 97.1% and 96%; (compound 3.16 µM) 85.2% and 99.3% and 90.9%; (compound 10 µM) 86.2% and 96.2% and 71.4%. Further, the IC50 (curve of compound) is above 10000 nM.
`COC1C(OC(N)=O)C(O)C(Oc2ccc3c(O)c(NC(=O)c4ccc(O)c(CC=C(C)C)c4)c(=O)oc3c2C)OC1(C)C` (stereo not given): the viability, T/C was 100% [middle of 13 runs] (compound 0.0316 µM); 102% [middle of 13 runs] (compound 0.1 µM); 98.2% [middle of 13 runs] (compound 0.316 µM); 101% [middle of 13 runs] (compound 1 µM); 97.6% [middle of 13 runs] (compound 3.16 µM); 93.8% [middle of 13 runs] (compound 10 µM). For the same compound, where the note is “compound alone, run of 10/31/2023”, the IC50 was above 10000 nM.
`COc1cc(C2c3cc4c(cc3C(OC3OC5COC(C)OC5C(O)C3O)C3COC(=O)C23)OCO4)cc(OC)c1O` (stereo not given): the viability, T/C (compound 0.0316 µM) was 90.2% and 98.8% and 103%; the viability, T/C (compound 0.1 µM) was 95.9% and 102% and 93.7%; the viability, T/C (compound 0.316 µM) is 85.3% and 104% and 92.5%; the viability, T/C (compound 1 µM) was 97.9% and 104% and 97.5%; the viability, T/C (compound 3.16 µM) is 84.4% and 99.5% and 83.6%; the viability, T/C (compound 10 µM) was 42.3% and 81.9% and 37%. For the same compound, the IC50 (curve of compound) was 8150 nM and > 10000 nM and 7300 nM.
